Consider four compounds from EP1235797B1, “ARALKYL-1,2-DIAMINES HAVING CALCIMIMETIC ACTIVITY AND PREPARATION MODE” (CENTRE NATIONAL DE LA RECHERCHE SCIENTIFIQUE (CNRS), priority 1999, dated 2001).

Data set [1] deals with PTH. To be noted: male patients with chronic renal failure (Antansen et al, Kidney International, 1998); cited from earlier work.
Data set [2] has as its target T1, CaSR de rat (Rattus norvegicus, UniProt P48442).
T1 construct: expressed in transfected cells; host or cells: CHO (Chinese hamster ovary) cells, line CHO(CaSR)
T1 sequence (P48442 20-1079): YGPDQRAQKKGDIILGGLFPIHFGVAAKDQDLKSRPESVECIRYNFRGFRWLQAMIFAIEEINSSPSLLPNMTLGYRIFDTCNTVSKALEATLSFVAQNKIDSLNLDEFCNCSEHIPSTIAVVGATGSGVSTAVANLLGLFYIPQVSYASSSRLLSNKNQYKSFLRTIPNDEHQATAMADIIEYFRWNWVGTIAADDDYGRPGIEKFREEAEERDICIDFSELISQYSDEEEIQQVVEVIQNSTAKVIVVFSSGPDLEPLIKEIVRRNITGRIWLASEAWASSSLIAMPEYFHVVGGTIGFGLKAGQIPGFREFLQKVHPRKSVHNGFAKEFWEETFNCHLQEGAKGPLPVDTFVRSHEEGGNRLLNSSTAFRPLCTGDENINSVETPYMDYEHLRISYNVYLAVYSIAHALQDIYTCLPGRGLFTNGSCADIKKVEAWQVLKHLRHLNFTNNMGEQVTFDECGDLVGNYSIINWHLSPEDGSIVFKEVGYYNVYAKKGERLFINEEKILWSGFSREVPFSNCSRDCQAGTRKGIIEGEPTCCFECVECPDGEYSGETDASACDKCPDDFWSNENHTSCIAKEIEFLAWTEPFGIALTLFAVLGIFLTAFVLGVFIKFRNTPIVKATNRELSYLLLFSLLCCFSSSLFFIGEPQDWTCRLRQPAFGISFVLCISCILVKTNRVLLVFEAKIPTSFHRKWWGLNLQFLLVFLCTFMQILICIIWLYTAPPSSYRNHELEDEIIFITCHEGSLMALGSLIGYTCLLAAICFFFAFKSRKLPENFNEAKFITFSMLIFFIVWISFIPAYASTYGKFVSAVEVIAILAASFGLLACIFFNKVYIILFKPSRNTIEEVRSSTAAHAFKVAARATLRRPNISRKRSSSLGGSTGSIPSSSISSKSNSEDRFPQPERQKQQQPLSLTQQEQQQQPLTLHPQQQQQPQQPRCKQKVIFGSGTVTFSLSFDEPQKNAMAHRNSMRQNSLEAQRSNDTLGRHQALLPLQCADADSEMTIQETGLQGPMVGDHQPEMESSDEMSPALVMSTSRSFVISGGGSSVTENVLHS
The experiment in a line: Accumulation of tritiated inositol phosphates ([3H]IP) in transfected CHO(CaSR) cells. Type of data set: cell-based. The conditions noted are these: compound 10 µM; for Accumulation d'(^3H)-IP % du taux basal. CHO (CaSR) / activity at 10 µM: basal level in presence of 2 mM Ca^2+ = 100 %; for activity at 10 µM: read-out: Accumulation d'(^3H)-IP % du taux basal. CHO (CaSR); for activation at 10 µM: read-out: Accumulation d'(^3H)-IP % de la réponse 10mM Ca^2+ ± E.S. The source says: L'ADN complémentaire codant pour le CaSR de rat a été isolé à partir d'une banque ADNc de striatum de rat (Ruat et al, Proc. Natl. Acad. Sci., 1995). Ce récepteur est identique au niveau de sa séquence en acides aminés à celui exprimé dans les autres tissus. Des cellules ovariennes de hamster chinois (CHO) transfectées exprimant le CaSR de rat (CHO(CaSR)) ont été caractérisées et les signaux chimiques (seconds messagers) induits par l'activation de ce récepteur ont été analysés. Ainsi, un test biochimique permettant de mesurer l'accumulation d'inositols phosphates tritiés [^3H]IP en réponse à l'activation du récepteur a été mis au point (Ruat et al, J. Biol. Chem., 1996; Ferry et al, Biochem. Biophys. Res. Commun., 1997).
L'activité calcimimétique des composés a été estimée en mesurant l'accumulation d'inositols phosphates tritiés induite par 10 µM de chacun des composés en présence de 2 mM de Ca^2+ dans les cellules CHO(CaSR) (Ferry et al, Biochem Biophys Res Commun, 1997).
Cette activation a été comparée à celle induite par le composé NPS-R- 568, un calcimimétique de référence et utilisé à une concentration de 10 µM (Tableau 1) (Ferry et al, Biochem Biophys Res Commun, 1997; Nemeth et al, Proc Natl Acad Sci USA, 1997).
Dans le tableau 1, l'activité calcimimétique des composés PHD est comparée à celle d'un composé de référence, le NPS-R-568 utilisé à la même concentration et dans les mêmes conditions expérimentales. Cette activité est exprimée en pourcentage de l'activité de 10 mM de Ca^2+. Les moyennes ± erreurs standards de 2 à 5 manipulations indépendantes sont indiquées. Les expériences ont été réalisées en présence de 2 mM de Ca^2+.
(§1) L'accumulation d'inositols phosphates tritiés est exprimée en pourcentage du taux de base observé en présence de 2 mM Ca^2+ (100 %) dans les cellules CHO(WT*) ou CHO(CaSR).

The test system of data set [3] is ostéitis fibrosa. To be noted: rat (Wada et al, Kidney International, 1998); cited from earlier work.
For data set [4], the system named is cellules CHO(WT*). The experiment in a line: Specificity control: [3H]IP accumulation in CHO(WT*) control cells transfected with the plasmid alone, not expressing CaSR. The conditions noted are these: compound 10 µM, basal level in presence of 2 mM Ca^2+ = 100 %; for activity at 10 µM: read-out: Accumulation d'(^3H)-IP % du taux basal. CHO (WT*). Type of data set: cell-based, hamster chinois. The procedure: Les molécules PHD, utilisées à une concentration de 10 µM ne conduisent pas ou peu à l'accumulation d'[^3H]IP dans des cellules CHO(WT*) témoins ce qui suggère leur spécificité d'action vis-à-vis du CaSR (Tableau 2). Les cellules CHO(WT*) ont été tranfectées avec le plasmide seul et n'expriment pas le CaSR.
as §1

In data set [5] the test system is PTH. To be noted: oral route, postmenopausal women with primary hyperparathyroidism (Silverberg et al, 1997); cited from earlier work.
In data set [6] the test system is glande parathyroïdienne. The conditions noted are these: rat model of chronic renal failure (Wada et al, J. Clin. Invest., 1997); cited from earlier work.
The conditions of data set [7]: clinical trials Phase I - II, NPS Pharmaceutical (Nemeth et al, 1999); cited from earlier work.
In data set [8] the target is T2, récepteurs de la parathyroïde (Rattus norvegicus, UniProt P48442).
T2 construct: from tissue; host or cells: rat parathyroid gland (in vivo)
T2 sequence (P48442 20-1079): T1 sequence (P48442 20-1079)
To be noted: experimental trials in the rat; cited from earlier work.

Where [9] appears, read: in presence of 2 mM Ca^2+, mean ± standard error of 2 to 5 independent experiments.

The structures appear in SMILES notation.

For `COc1cccc([C@@H](C)NCCCc2ccccc2Cl)c1` [NPS R-568, reference compound], the “concentrations de PTH” value in data set [1] is given as “réduit”. Besides, in data set [2], the “Accumulation d'(^3H)-IP % du taux basal. CHO (CaSR)” value is “une forte accumulation” and the activity at 10 µM came out at 454 ± 33%. For the same compound, in data set [2] (setting [9]), the “Accumulation d'(^3H)-IP % de la réponse 10mM Ca^2+ ± E.S.” value is reported as 106 ± 15% and the activation at 10 µM stood at 100%. The ostéitis fibrosa result in data set [3] is listed as “réduit ou élimine”. In addition, in data set [4], the “Accumulation d'(^3H)-IP % du taux basal. CHO (WT*)” value is “peu ou pas d'accumulation” and the activity at 10 µM was determined as 119 ± 9%. The “concentrations de PTH et des ions Ca^2+ libres sériques” value in data set [5] is recorded as “abaisser”. The “réduire la prolifération cellulaire observée dans la glande parathyroïdienne” value in data set [6] was 20-50%. For the same compound, the bio-disponibilité result in data set [7] was “faible”.

With `CC(NCC(Cc1ccccc1)NS(=O)(=O)c1cccc(Cl)c1)c1cccc2ccccc12` (stereo not shown) [PHD 308], in data set [2], the “Accumulation d'(^3H)-IP % du taux basal. CHO (CaSR)” value is “une forte accumulation” and the activity at 10 µM came out at 314 ± 13%. Also, the activation at 10 µM in data set [2] (setting [9]) stood at 83 ± 4%. In data set [4], the “Accumulation d'(^3H)-IP % du taux basal. CHO (WT*)” value is “peu ou pas d'accumulation” and the activity at 10 µM is 124 ± 9%.

As for `COc1cccc([C@@H](C)NCCCc2ccccc2)c1` [NPS R-467], the “sélectivité vis à vis des récepteurs de la parathyroïde comparativement à ceux de la glande thyroïde” value in data set [8] is given as “plus sélectif”.

Regarding `CC(NCC(Cc1ccccc1)NCc1ccccc1Cl)c1cccc2ccccc12` (stereo not shown) [PHD 307, N^2-(2-Chlorobenzyl)-N^1-[1-(1-naphtyl)éthyl]-3-phénylpropane-1,2-diamine], in data set [2], the “Accumulation d'(^3H)-IP % du taux basal. CHO (CaSR)” value is on record as “une forte accumulation” and the activity at 10 µM was determined as 393 ± 28%. Further, the activation at 10 µM in data set [2] (setting [9]) was determined as 98 ± 8%. Besides, in data set [4], the “Accumulation d'(^3H)-IP % du taux basal. CHO (WT*)” value is on record as “peu ou pas d'accumulation” and the activity at 10 µM turned out to be 134 ± 11%.
